Assay results taken from patent US20230105108A1, “COMPOUNDS FOR THE TREATMENT OF BACTERIAL INFECTIONS AND POTENTIATION OF ANTIBIOTICS” (GEORGIA STATE UNIVERSITY RESEARCH FOUNDATION, INC., priority 2019, published 2023).
Structures can show the parent of a compound that is named as a salt. Where two headings read alike, the source gives them in different places.

Key:
E. coli = test: Sensitization of E. coli (sensitization fold), Example 2; assay type: cell-based
Experimental: The sensitization fold of select compounds of the present invention was determined. E. coli bacteria were cultured in nutrient broth at 37° C. overnight prior to treatment. […] Bacterial density was measured based on OD600.

[1] = Cytotoxicity in H9c2 cells (CCK-8); assay type: cell-based; settings: rat, H9c2 cells; for CC50 at 24 h: H9c2 cell line
Experimental: The cytotoxicity in H9c2 (ATCC®CRL-1446™) cells was also determined. The H9c2 cells were maintained in DMEM (Dulbecco's Modified Eagle's Medium) supplemented with 10% fetal bovine serum (MidSci; S01520HI) and 1% penicillin-streptomycin (Sigma-Aldrich; P4333) at 37° C. with 5% CO2. The H9c2 cells were seeded in 96-well plate one day before the experiment. Different concentrations of di-amidine compounds were added into the H9c2 cells. The cells were then incubated with the compounds for 24 hours at 37° C. with 5% CO2. The cell viability was tested by the CCK-8. Specifically, after 24 hour incubation, 10 μL CCK-8 was added to each well. After 3 hours incubation at 37° C., the absorbance at 450 nm was recorded by a plate reader.

E. coli (ATCC 25922) = test: MIC determination, sensitization fold and FIC index on E. coli; assay type: cell-based; settings: for MIC: Escherichia coli, ATCC25922, 24 h, compound alone, read-out: MIC
Experimental: (§1) Bacteria culture and MICs determination: Gram-negative bacteria were cultured in Mueller Hinton II cation-adjusted broth. Gram-positive bacteria were cultured in LB broth. Mycobacterium smegmatis was cultured in Middlebrook 7H9 Broth. MICs of antibiotics itself were determined by performing two-fold serial dilutions of antibiotics. MICs of antibiotics in the presence of bacterial sensitizers were determined by performing two-fold serial dilutions of antibiotics with or without a constant concentration of bacterial sensitizers. The MICs tests were performed on 96-well plates with a final volume of 200 μl Mueller Hinton II cation-adjusted broth in each well. Each well was inoculated with 5×10^5 CFU/ml bacteria and was incubated for 24 h at 37° C. with continuous shaking of 200 rpm. The bacterial density was then determined by OD600. Bacterial growth %=OD600 of antibiotic treatment group/OD600 of antibiotic non-treatment group. MICs was determined as the concentrations that inhibit more than 90% of bacteria growth.
(§2) Sensitization fold determination and FIC index calculations: Sensitization fold=MIC of antibiotic only/MIC of antibiotic with bacterial sensitizer. […] Since the MICs were determined by performing two-fold serial dilutions of antibiotic, so the sensitization fold can is the times of 2.
FIC index between compound a and b was calculated according to the formula below: […]
FIC≤0.5: Synergy; FIC between 0.5 and 1: Additive; FIC between 1 and […]: no interaction; FIC >4: antagonism.
(§3) Bacteria strains (as indicated in Table 5B) were cultured with rifampicin at various concentrations in the presence or absence of 10 μM of the indicated compound for 20 h at 37° C. The MIC, sensitization, cytotoxicity, and MIC on mycobacteria were tested according to methods described herein. […] The sensitization activities of compounds on MRSA were tested using rifampicin. The sensitization activities of compounds on E. coli were tested using rifampicin.

B. subtilis = test: MIC determination and sensitization fold on B. subtilis; assay type: cell-based; settings: B. subtilis; for Sensitization fold: erythromycin; for MIC: Bacillus subtilis, 24 h, compound alone, read-out: MIC
MRSA (ATCC 33592) = test: MIC determination and sensitization fold on MRSA; assay type: cell-based, methicillin-resistant Staphylococcus aureus; settings: Staphylococcus aureus, 24 h
Experimental: Bacteria strains: E. coli (ATCC 25922), A. baumannii (ATCC 17978), K. pneumoniae (43816), S. maltophilia (ATCC 31559), S. typhimurium (ATCC 14028), C. werkmanii (ATCC 51114), S. aureus (ATCC 12600) and methicillin-resistant Staphylococcus aureus (MRSA, ATCC 33592) strains were purchased from ATCC. NR698 was provided.
as §1, §2, §3

[2] = Cytotoxicity on mammalian cells (CCK-8), HEK293; assay type: cell-based; settings: human, HEK293 cells; HEK293 cell line; 24 h
Experimental: (§4) Cytotoxicity test of bacterial sensitizers on mammalian cells. Cell viability was assessed by using Cell Counting Kit-8 (CCK-8, Dojindo, Japan). HEK293 or NIH3T3 cells were seeded in a 96-well plate one day before the experiment to reach 80% confluency. Cells were then incubated with various concentration of bacterial sensitizers at 37° C. with 5% CO2 for 24 h, then 10 μL of CCK-8 solution was added to each well, and the plate was incubated for an additional at 37° C. 2 h with 5% CO2. The optical density at 450 nm was recorded by plate reader; and the results were calculated as a percentage of viability compared with the untreated control.

HEK293 cells = test: Cytotoxicity on mammalian cells (CCK-8), HEK293; assay type: cell-based; settings: Homo sapiens
Experimental: as §4

[3] = Cytotoxicity on mammalian cells (CCK-8), NIH3T3; assay type: cell-based; settings: mouse, NIH3T3 cells, 3T3 cell line
Experimental: as §4

[4] = 10 μM compound, rifampicin as the antibiotic (Table 6)
[5] = MRSA, compound alone, read-out: MIC

Compound: N=C(N)c1ccc(-c2ccc(-c3ccc(-c4ccc(C(=N)N)s4)o3)o2)s1 [Compound Q]
- Sensitization ability: fold sensitization of E. coli towards rifampicin (E. coli; compound at 25 μM): At 25 μM, sensitize E. coli towards rifampicin for 32-fold;
- IC50 at 24 h ([1]; H9c2 cells (ATCC CRL-1446)): 50 µM

Compound: N=C(N)Nc1ccc(-c2ccc(-c3ccc(-c4ccc(NC(=N)N)cc4)o3)o2)cc1 [Compound O]
- Sensitization ability: fold sensitization of E. coli towards rifampicin (E. coli; compound at 10 μM): At 10 μM, sensitize E. coli towards rifampicin for 256-fold.
- IC50 at 24 h ([1]; H9c2 cells (ATCC CRL-1446)): > 100 µM

Compound: N=C(N)c1ccc(-c2ccc(-c3ccc(-c4ccc(C(=N)N)cc4)o3)o2)cc1 [Compound T]
- Sensitization ability: fold sensitization of E. coli towards rifampicin (E. coli; compound at 25 μM): At 25 μM, sensitize E. coli towards rifampicin for 32-fold;
- IC50 at 24 h ([1]; H9c2 cells (ATCC CRL-1446)): > 100 µM

Compound: N=C(N)c1ccc(-c2ccc(-c3ccc(-c4ccc(C(=N)N)o4)s3)s2)o1 [Compound P]
- Sensitization ability: fold sensitization of E. coli towards rifampicin (E. coli; compound at 25 μM): At 25 μM, sensitize E. coli towards rifampicin for 32-fold;
- IC50 at 24 h ([1]; H9c2 cells (ATCC CRL-1446)): 50 µM

Compound: N=C(N)c1ccc(-c2ccc(-c3ccc(C(=N)N)cc3)[se]2)cc1 [Compound R]
- Sensitization ability: fold sensitization of E. coli towards rifampicin (E. coli; compound at 25 μM): At 25 μM, sensitize E. coli towards rifampicin for 32-fold;
- IC50 at 24 h [1]: > 100 µM

Compound: N=C(N)c1ccc(-c2ccc3[nH]cc(-c4nc5ccc(C(=N)N)cc5[nH]4)c3c2)cc1 [Compound U, 3-(5-Amidinobenzimidazol-2-yl)-5-(4-amidinophenyl)indole acetate salt]
- Sensitization ability: fold sensitization of E. coli towards rifampicin (E. coli; compound at 10 μM): At 10 μM, sensitize E. coli towards rifampicin for 32-fold;
- IC50 at 24 h ([1]; H9c2 cells (ATCC CRL-1446)): 100 µM

Compound: CC(C)(C)c1cc(COc2ccc(C(=N)N)cc2F)cc(COc2ccc(C(=N)N)cc2F)c1 [MD-115, 4,4′-(((5-(tert-butyl)-1,3-phenylene)bis(methylene))bis(oxy))bis(3-fluorobenzimidamide) dihydrochloride]
- CC50 at 24 h [1]: 25 µM
- Sensitization fold (E. coli (ATCC 25922); [4]): 256 fold
- Sensitization fold (E. coli (ATCC 25922); E. coli, rifampicin, compound at 10 μM): 256-fold at 10 μM
- Sensitization fold (B. subtilis; compound at 6 μM): 8-fold at 6 μM
- MIC (MRSA (ATCC 33592)): 25 µM
- CC50 at 24 h [2]: 25 to 50 µM
- IC50 (HEK293 cells; HEK293): 25 to 50 µM
- CC50 at 24 h [3]: 25 to 50 µM

Compound: N=C(N)Nc1ccc(-c2ccc(-c3nc4ccc(NC(=N)N)cc4[nH]3)o2)cc1 [Compound B]
- Sensitization ability: fold sensitization of E. coli towards rifampicin (E. coli; compound at 25 μM): At 25 μM, sensitize E. coli towards rifampicin for 16-fold;
- IC50 at 24 h ([1]; H9c2 cells (ATCC CRL-1446)): 100 µM

Compound: N=C(N)c1ccc(-c2ccc(-c3ccc(-c4ccc(C(=N)N)o4)o3)o2)o1 [Compound N]
- Sensitization ability: fold sensitization of E. coli towards rifampicin (E. coli; compound at 25 μM): At 25 μM, sensitize E. coli towards rifampicin for 64-fold.
- IC50 at 24 h ([1]; H9c2 cells (ATCC CRL-1446)): 100 µM

Compound: N=C(N)Nc1ccc(-c2ccc(-c3ccc(NC(=N)N)cc3)cc2)cc1 [Compound A]
- Sensitization ability: fold sensitization of E. coli towards rifampicin (E. coli; compound at 25 μM): At 25 μM, sensitize E. coli towards rifampicin for 256-fold;
- IC50 at 24 h ([1]; H9c2 cells (ATCC CRL-1446)): 50 µM

Compound: Cc1cc(CSc2ccc(C(=N)N)cc2)cc(CSc2ccc(C(=N)N)cc2)c1 [MD-117, 4,4′-(((5-methyl-1,3-phenylene)bis(methylene))bis(sulfanediyl)) dibenzimidamide dihydrochloride]
- Sensitization fold (E. coli (ATCC 25922); [4]): 32 fold
- Sensitization fold (E. coli (ATCC 25922); E. coli, rifampicin, compound at 6 μM): 8-fold at 6 μM.
- Sensitization fold (E. coli (ATCC 25922); E. coli, rifampicin, compound at 12.5 μM): 32-fold at 12.5 μM
- MIC (E. coli (ATCC 25922); E. coli): 50 µM
- Sensitization fold (B. subtilis; compound at 3 μM): 8-fold at 3 μM.
- Sensitization fold (B. subtilis; compound at 6 μM): 32-fold at 6 μM
- MIC (B. subtilis): 25 µM
- MIC (MRSA (ATCC 33592); [5]): 12.5 µM
- CC50 at 24 h [2]: 25 to 50 µM
- IC50 (HEK293 cells; HEK293 cells (Table 6), read-out: IC50): 25 to 50 µM
- CC50 at 24 h [3]: 25 to 50 µM

Compound: N=C(N)Nc1ccc(-c2ccc(-c3ccc(NC(=N)N)cc3Cl)o2)c(Cl)c1 [Compound C]
- Sensitization ability: fold sensitization of E. coli towards rifampicin (E. coli; compound at 4 μM): At 4 μM, sensitize E. coli towards rifampicin for 516-fold;
- IC50 at 24 h ([1]; H9c2 cells (ATCC CRL-1446)): 50 µM

Compound: Cc1cc(COc2ccc(CN)cc2)cc(COc2ccc(CN)cc2)c1 [MD-106, ((((S-methyl-1,3-phenylene)bis(methylene))bis(oxy))bis(4,1-phenylene))dimethanamine dihydrochloride]
- CC50 at 24 h [1]: 12.5 µM
- Sensitization fold (E. coli (ATCC 25922); [4]): 1 fold
- Sensitization fold (E. coli (ATCC 25922); E. coli, rifampicin, compound at 25 μM): 4-fold at 25 μM
- MIC (E. coli (ATCC 25922); E. coli): 100 µM
- sensitization activity (E. coli (ATCC 25922); rifampicin, compound at up to 10 μM): no sensitization activity
- Sensitization fold (B. subtilis; compound at 4 μM): 4-fold at 4 μM
- Sensitization fold (B. subtilis; compound at 12 μM): 16-fold at 12 μM
- MIC (B. subtilis): > 50 µM
- MIC (MRSA (ATCC 33592); [5]): > 50 µM
- CC50 at 24 h [2]: 25 µM
- CC50 at 24 h [3]: 25 µM
